Results taken from patent US12649750B2, “Macrocyclic compounds, compositions, and methods of using thereof” (Sionna Therapeutics Inc., priority 2022, dated 2026).

Biological target: T1, NBD1 (Homo sapiens, UniProt P13569)
T1 construct: Purified recombinant NBD1 was produced using previously described methods; made in house
Test: Aggregation analysis using differential static light scattering (DSLS), thermal stability of NBD1 (ΔTagg)
Assay type: binding
Conditions: ΔTagg versus DMSO control, NBD1 0.2 mg/ml
In short: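 Purified recombinant NBD1 at 0.2 mg/ml in 50 mM Tris-HCl, 150 mM NaCl, 5 mM MgCl2, 2 mM ATP, 2 mM DTT, pH 7.6, 1% glycerol, with compound, heated 1° C./min to 70° C. under light-scattering monitoring. Tagg taken at curve inflection; ΔTagg is compound Tagg minus mean DMSO-control Tagg, binned A (≤5° C.), B (>5-≤10° C.), C (>10-≤25° C.).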

T1 sequence (P13569 423-646 limits assumed): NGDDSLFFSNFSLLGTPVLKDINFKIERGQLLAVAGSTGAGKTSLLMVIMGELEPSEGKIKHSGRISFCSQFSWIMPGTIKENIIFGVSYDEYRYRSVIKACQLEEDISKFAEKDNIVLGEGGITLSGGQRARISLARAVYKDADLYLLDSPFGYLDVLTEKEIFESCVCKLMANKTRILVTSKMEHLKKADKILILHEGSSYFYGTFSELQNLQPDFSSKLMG

SMILES | DSLS 3D (100 μM ΔT)
Cn1nc2nc1-c1cc(ccn1)Cc1c(F)cc3[nH]ccc3c1CCS(=O)(=O)CC(C)(C)CCC[C@]2(C)c1cccc(CC2(C(=O)O)CC2)c1 [Compound 313, 1-[[3-[(6R)-22-Fluoro-3,6,10,10-tetramethyl-12,12-dioxo-12λ6-thia-3,4,19,28,30-pentazapentacyclo[23.3.1.12,5.015,23.016,20]triaconta-1(29),2(30),4,15,17,20,22,25,27-nonaen-6-yl]phenyl]methyl]cyclopropanecarboxylic acid] | B (a value above 5 °C and less than or equal to 10 °C is marked “B”)
C[C@@H](Cc1cccc(C2(C)CCCC(C)(C)CS(=O)(=O)CCc3c(c(F)cc4[nH]ccc34)S(=O)(=O)c3ccnc(c3)-c3nc2nn3C)n1)C(=O)O (stereo partly drawn) [Compound 315E, (2S)-3-[6-(22-fluoro-3,6,10,10-tetramethyl-12,12,24,24-tetraoxo-12λ6,24λ6-dithia-3,4,19,28,30-pentazapentacyclo[23.3.1.12,5.015,23.016,20]triaconta-1(29),2(30),4,15,17,20,22,25,27-nonaen-6-yl)-2-pyridyl]-2-methyl-propanoic Acid] | A (an ΔTagg value less than or equal to 5 °C is marked “A”)
C[C@H](Cc1cccc([C@@]2(C)CCCC(C)(C)CS(=O)(=O)CCc3c(c(F)c(F)c4[nH]ccc34)S(=O)(=O)c3ccc(F)c(c3)-c3nc2nn3C)c1)C(=O)O [Compound 320, (2R)-2-Methyl-3-[3-[(6R)-21,22,28-trifluoro-3,6,10,10-tetramethyl-12,12,24,24-tetraoxo-12λ6,24λ6-dithia-3,4,19,30-tetrazapentacyclo[23.3.1.12,5.015,23.016,20]triaconta-1(29),2(30),4,15,17,20,22,25,27-nonaen-6-yl]phenyl]propanoic acid] | B (a value above 5 °C and less than or equal to 10 °C is marked “B”)
Cc1c[nH]c2c(F)c(F)c3c(c12)CCS(=O)(=O)CC(C)(C)CCC[C@](C)(c1cccc(C[C@@H](C)C(=O)O)c1)c1nc(n(C)n1)-c1cc(ccc1F)O3 [Compound 321, (2R)-2-Methyl-3-[3-[(6R)-21,22,28-trifluoro-3,6,10,10,17-pentamethyl-12,12-dioxo-24-oxa-12λ6-thia-3,4,19,30-tetrazapentacyclo[23.3.1.12,5.015,23.016,20]triaconta-1(29),2(30),4,15,17,20,22,25,27-nonaen-6-yl]phenyl]propanoic Acid] | A (an ΔTagg value less than or equal to 5 °C is marked “A”)
C[C@H](Cc1cccc([C@@]2(C)CCCC(C)(C)CS(=O)(=O)CCc3c(c(F)c(F)c4[nH]cc(C#N)c34)Oc3ccc(F)c(c3)-c3nc2nn3C)c1)C(=O)O [Compound 322, (2R)-3-[3-[(6R)-17-Cyano-21,22,28-trifluoro-3,6,10,10-tetramethyl-12,12-dioxo-24-oxa-12λ6-thia-3,4,19,30-tetrazapentacyclo[23.3.1.12,5.015,23.016,20]triaconta-1(29),2(30),4,15,17,20,22,25,27-nonaen-6-yl]phenyl]-2-methyl-propanoic Acid] | B (a value above 5 °C and less than or equal to 10 °C is marked “B”)
Cn1nc2nc1-c1cc(ccn1)Oc1c(F)c(F)c3[nH]ccc3c1CCS(=O)(=O)CC(C)(C)CCC[C@]2(C)c1cccc(CC(C)(C)C(=O)O)c1 [Compound 323, 3-[3-[(6R)-21,22-Difluoro-3,6,10,10-tetramethyl-12,12-dioxo-24-oxa-12λ6-thia-3,4,19,28,30-pentazapentacyclo[23.3.1.12,5.015,23.016,20]triaconta-1(29),2(30),4,15,17,20,22,25,27-nonaen-6-yl]phenyl]-2,2-dimethyl-propanoic Acid] | B (a value above 5 °C and less than or equal to 10 °C is marked “B”)
Cn1nc2nc1-c1cc(ccc1F)Oc1c(F)c(F)c3[nH]ccc3c1CCS(=O)(=O)CC(C)(C)CCC[C@]2(C)c1cccc(CC(C)(C)C(=O)O)c1 [Compound 324, 2,2-Dimethyl-3-[3-[(6R)-21,22,28-trifluoro-3,6,10,10-tetramethyl-12,12-dioxo-24-oxa-12λ6-thia-3,4,19,30-tetrazapentacyclo[23.3.1.12,5.015,23.016,20]triaconta-1(29),2(30),4,15,17,20,22,25,27-nonaen-6-yl]phenyl]propanoic Acid] | B (a value above 5 °C and less than or equal to 10 °C is marked “B”)
Cn1nc2nc1-c1cc(ccc1F)Sc1c(F)c(F)c3[nH]cc(CC(=O)O)c3c1CCS(=O)(=O)CC(C)(C)CCC[C@]2(C)c1ccccc1 [Compound 325, 2-[(6R)-21,22,28-Trifluoro-3,6,10,10-tetramethyl-12,12-dioxo-6-phenyl-12λ6,24-dithia-3,4,19,30-tetrazapentacyclo[23.3.1.12,5.015,23.016,20]triaconta-1(29),2(30),4,15,17,20,22,25,27-nonaen-17-yl]acetic Acid] | B (a value above 5 °C and less than or equal to 10 °C is marked “B”)
C[C@H](Cc1cccc([C@@]2(C)CCCC(C)(C)CS(=O)(=O)CCc3c(c(F)c(F)c4[nH]cc(Cl)c34)Oc3ccc(F)c(c3)-c3nc2nn3C)c1)C(=O)O [Compound 327] | A (an ΔTagg value less than or equal to 5 °C is marked “A”)
C[C@H](Cc1cccc([C@@]2(C)CCCC(C)(C)CS(=O)(=O)CCc3c(c(F)c(F)c4[nH]ccc34)Oc3ccc(F)c(c3)-c3nc2nn3C)c1)C(=O)NS(=O)(=O)C1CC1 [Compound 328, (2R)—N-Cyclopropylsulfonyl-2-methyl-3-[3-[(6R)-21,22,28-trifluoro-3,6,10,10-tetramethyl-12,12-dioxo-24-oxa-12λ6-thia-3,4,19,30-tetrazapentacyclo[23.3.1.12,5.015,23.016,20]triaconta-1(29),2(30),4,15,17,20,22,25,27-nonaen-6-yl]phenyl]propenamide] | B (a value above 5 °C and less than or equal to 10 °C is marked “B”)
C[C@@H](Cc1cccc([C@@]2(C)CCCC(C)(C)CS(=O)(=O)CCc3c(c(F)cc4[nH]ccc34)S(=O)(=O)c3ccc(F)c(c3)-c3nc2nn3C)c1)C(=O)O [Compound 329, (2S)-3-[3-[(6R)-22,28-Difluoro-3,6,10,10-tetramethyl-12,12,24,24-tetraoxo-12λ6,24λ6-dithia-3,4,19,30-tetrazapentacyclo[23.3.1.12,5.015,23.016,20]triaconta-1(29),2(30),4,15,17,20,22,25,27-nonaen-6-yl]phenyl]-2-methyl-propanoic Acid] | B (a value above 5 °C and less than or equal to 10 °C is marked “B”)
C[C@@H](Cc1cccc([C@@]2(C)CCCC(C)(C)CS(=O)(=O)CCc3c(c(F)cc4[nH]ccc34)S(=O)(=O)c3cccc(c3)-c3coc2n3)c1)C(=O)O [Compound 331, (2S)-3-[3-[(6R)-22-Fluoro-6,10,10-trimethyl-12,12,24,24-tetraoxo-4-oxa-12λ6,24λ6-dithia-19,30-diazapentacyclo[23.3.1.12,5.015,23.016,20]triaconta-1(29),2,5(30),15,17,20,22,25,27-nonaen-6-yl]phenyl]-2-methyl-propanoic acid] | A (an ΔTagg value less than or equal to 5 °C is marked “A”)
CC(=O)OC[C@H](Cc1cccc([C@@]2(C)CCCC(C)(C)CS(=O)(=O)CCc3c(c(F)cc4[nH]ccc34)Sc3ccnc(c3)-c3nc2nn3C)c1)OC(C)=O [Compound 332] | A (an ΔTagg value less than or equal to 5 °C is marked “A”)
